Results from US20260327196A1, “AMINO ACID DERIVATIVES FOR DETECTING NEUROLOGICAL DISORDERS” (Amydis, Inc., priority 2023, published 2026).
Where a name gives a salt, the structure may show the parent alone.

Assays:
[1] = system: amyloidogenic protein aggregates (e.g., Aβ, aSyn, TTR, and TDP43); test: In vitro characterization: binding to amyloidogenic protein aggregates; details: 4 μM compound 1, 5 μM aggregated protein; excitation 450 and 488 nm
Protocol: (§1) An in vitro study was carried out to characterize the fluorescent properties of compound 1 and its binding to amyloidogenic protein aggregates (e.g., Aβ, aSyn, TTR, and TDP43).
(§2) Compound 1 (4 μM) was prepared with or without 5 μM aggregated amyloidogenic protein in 1× phosphate-buffered saline (PBS). The emission spectra of compound 1 for each sample were collected according to the following protocol and the corresponding fold increases (compound 1+amyloid aggregate/compound 1) were calculated.
The following protocol was adopted in this study: • 1. Turn on the fluorimeter and let warm up for-30 minutes • 2. Allow aggregated amyloid protein (100 μM) solution to warm to room temperature • 3. Allow the compound 1 to warm to room temperature • 4. Prepare 1×PBS, pH 7.4. • 5. Prepare blank solution of DMSO/PBS (2.42 μl DMSO in 147.6 μl PBS, pH 7.4) • 6. Prepare a 250 μM solution of compound 1 in DMSO. Keep samples in the dark at room temperature. • 7. Prepare a 4 μM compound 1 solution with and without 5 μM aggregated amyloid protein • 8. Measure the emission scan of compound 1+aggregated amyloid protein solution using 1) 450 nm and 2) 488 nm as the excitation wavelength. Record the emission sweep from 450 nm-750 nm. Determine Amax from these spectra • 9. […] Export the data and plot relative fluorescence intensity (RFI) versus wavelength for emission spectra

[2] = system: Hyperphosphorylated three repeat tau protein; test: In vivo detection in TBI mouse model, fluorescent imaging of retinas; details: intravenous administration, removed retinas, fluorescence microscope; wild type mice of comparable age: no immunostaining
Protocol: Model mice having a target protein, for example, an amyloid beta protein, or a phosphorylated tau protein, or an accumulated mass thereof, are administered compound 1, 2, or 3 intravenously. Retinas of the mice are removed and are mounted on slides. The retinas are washed with PBS 2 times for 5 minutes. A solution of 98% formic acid is added-5 minutes for antigen retrieval. The sampled are washed with distilled water-2 times for 5 minutes. The samples are equilibrated in 1×PBS for 15 minutes, then blocked with 10% goat/donkey serum in 1×PBST (depending on antibodies) for 1 hour. Samples are covered in foil, and washed with 1×PBS 3 times for 5 minutes each. Samples are stained with DAPI (300 nM or 100 ng/ml) in dark for 10 minutes, then tissues are washed 3×10 minutes with PBS. Antifade DAKO mounting medium is added, and coverslip and kept under foil until imaging.
Fluorescent imaging study of the samples is conducted on a Leica DMI 4000B microscope (Leica, Germany) equipped with a TCS SPE camera and Leica 10, 20 and 40× objectives. The following lasers are used to visualize fluorescent probes pertaining to DAPI (blue, nuclear stain), compound 1, 2, or 3 (green) and hyperphosphorylated tau (red): 408, 488 and 568 nm. Z-stacked images are taken at 40× at 0.5 μm increments to visualize the entire thickness of the tissue.

[3] = system: amyloid-like deposits in the retina; test: In vivo NHP imaging study, fundus autofluorescence (FAF); parameters: species or system non-human primates (monkeys); details: 5.13 mg/kg IV bolus
Protocol: An in vivo imaging study was carried out in non-human primates (NHP).
Compound 1 was administered to ketamine xylazine-anesthetized monkeys as a single bolus intravenous dose according to Table B. In-vivo fundus autofluorescence (FAF) images were collected prior to injection and at 2-, 5-, 15-, and 30-minutes post injection.
The compound 1 solution for injection (7 mg/mL compound 1 in 13 mM sodium bicarbonate buffered at pH 4.2) was prepared according to the following steps: • 1. Add 3 g sodium bicarbonate to 100 mL water (0.03 g/ml) • 2. Weigh out 4 g of PEG-400 (d. 1.13 g/mL) into an amber, or light isolated, 20 mL storage container containing a stir bar • 3. Add 200 mg of compound 1-HCl to the PEG-400 • 4. Add 20 mL water and stir until clear (~10 min) • 5. Add dropwise 0.6 ml of 0.03 g/ml sodium bicarbonate solution and stir 10 min (PH ~3.8) • 6. Add dropwise another 0.2 ml of the sodium bicarbonate solution and stir 10 min to adjust pH to 4.2 to provide a clear red solution • 7. Filter through 1 inch 0.22 μm diameter syringe filter to give a red clear solution into a presterilized sealed 20 mL amber glass vial • 8. Test the pH to confirm ~4.2 • 9. Transfer the remaining formulation into a 5 mL presterilized amber glass vial and place into a −20° C. freezer for analytical testing. The vial can be stored for up to 1 hour prior to use. • 10. Inject with a sterile syringe attached to a 0.22-micron PVDF membrane filter and needle. Use within 1 hour.

TDP43 = TDP43 (Homo sapiens, UniProt Q13148); test: Fluorescence emission / binding of compound 1 to aggregated amyloidogenic protein (Table A); details: 4 μM compound 1, 5 μM aggregated protein, 1×PBS pH 7.4
Protocol: as §1, §2
(§3) The following protocol was adopted in this study: • 1. Turn on the fluorimeter and let warm up for-30 minutes • 2. Allow aggregated amyloid protein (100 μM) solution to warm to room temperature • 3. Allow the compound 1 to warm to room temperature • 4. Prepare 1×PBS, pH 7.4. • 5. Prepare blank solution of DMSO/PBS (2.42 μl DMSO in 147.6 μl PBS, pH 7.4) • 6. Prepare a 250 μM solution of compound 1 in DMSO. Keep samples in the dark at room temperature. • 7. Prepare a 4 μM compound 1 solution with and without 5 μM aggregated amyloid protein • 8. Measure the emission scan of compound 1+aggregated amyloid protein solution using 1) 450 nm and 2) 488 nm as the excitation wavelength. Record the emission sweep from 450 nm-750 nm. Determine Amax from these spectra • 9. Repeat step 8 for 4 μM compound 1 without amyloid protein • 10. Export the data and plot relative fluorescence intensity (RFI) versus wavelength for emission spectra

TTR = TTR (Homo sapiens, UniProt P02766); test: as above; details: 4 μM compound 1, 5 μM aggregated protein, 1×PBS pH 7.4
Protocol: as §1, §2, §3

aSyn = aSyn (Homo sapiens, UniProt P37840); test: as above; details: 4 μM compound 1, 5 μM aggregated protein, 1×PBS pH 7.4
Protocol: as §1, §2, §3

Aβ = Aβ (Homo sapiens, UniProt P05067); test: as above; details: 4 μM compound 1, 5 μM aggregated protein, 1×PBS pH 7.4
Protocol: as §1, §2, §3

[4] = system: aggregates in ALS ex vivo retina cadaver tissue; test: Ex vivo human cadaver imaging study, flat mounted ALS retinas stained with compound 1; details: 60 μM compound 1, 30 minutes at room temperature, confocal microscope
Protocol: An ex vivo human cadaver imaging study was carried out using compound 1. Flat mounted retinas extracted from ALS (amyotrophic lateral sclerosis) human cadavers were stained with compound 1 (60 μM) and images were collected.
The following staining protocol was adopted in this study:
• (i) Fix tissue in room temperature 4% PFA for 20 minutes, wash, permeabilize, and block (5% goat serum in PBST for 1 hour) • (ii) Incubate with 60 μM compound 1 in 1×PBS for 30 minutes at room temperature • (iii) Wash with PBS (3 times for 5 minutes) • (iv) Mount tissue using antifade Prolong Glass mounting media. • (v) Image with confocal microscope • (vi) Add lambda scanning imaging protocol to determine the emission peak.

[5] = FAF images at 2, 5, 15 and 30 minutes post injection

Chain of TDP43 (Q13148 whole entry): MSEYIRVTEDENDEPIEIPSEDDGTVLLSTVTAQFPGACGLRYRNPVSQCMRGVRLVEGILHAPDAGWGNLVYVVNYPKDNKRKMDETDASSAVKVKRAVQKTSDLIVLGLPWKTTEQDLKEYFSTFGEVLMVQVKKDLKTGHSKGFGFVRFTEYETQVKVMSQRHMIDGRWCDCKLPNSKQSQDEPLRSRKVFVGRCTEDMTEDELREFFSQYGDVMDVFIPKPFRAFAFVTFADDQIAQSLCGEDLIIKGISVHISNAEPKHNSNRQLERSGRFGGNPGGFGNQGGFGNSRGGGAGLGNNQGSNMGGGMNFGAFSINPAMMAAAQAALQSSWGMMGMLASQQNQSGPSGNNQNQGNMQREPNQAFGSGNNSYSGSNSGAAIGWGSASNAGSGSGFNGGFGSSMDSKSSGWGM
Chain of Aβ (P05067 672-713 limits assumed): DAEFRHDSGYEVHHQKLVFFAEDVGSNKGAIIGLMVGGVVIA

Q: How did the “binding to the aggregated amyloidogenic proteins in vitro” value [1] turn out when `N#C/C(=C\c1ccc2cc(N3CCCCC3)ccc2c1)C(=O)NCCOCCOCCOC(=O)CN` [Compound 1, (E)-2-(2-(2-(2-cyano-3-(6-(piperidin-1-yl)naphthalen-2-yl)acrylamido)ethoxy)ethoxy)ethyl glycinate hydrochloride salt] was run?
A: successfully bound to the aggregated amyloidogenic proteins in vitro

Q: What about the “detection of hyperphosphorylated three repeat tau in the retina (fluorescent signal)” value (shortened to “detection”) [2] of the same compound?
A: Hyperphosphorylated three repeat tau protein is detected in the retina, producing a detectable fluorescent signal

Q: And the “hyperfluorescence in vasculature and retinal tissue following injection” value [3, 5]?
A: hyperfluorescence was observed within minutes in the vasculature following injection and subsequently in the retinal tissue

Q: And the “labeling of amyloid-like deposits in the retina” value [3, 5]?
A: labeled amyloid-like deposits in the retina

Q: And the “clearance of signal from the vascular system” value ([3]; FAF images up to 30 minutes post injection)?
A: signal cleared quickly from the vascular system

Q: What about the “Fold (fold increase, compound 1+amyloid aggregate/compound 1)” value (TDP43; excitation 450 nm) of the same compound?
A: 6.1 fold

Q: And the λmax (TDP43; excitation 450 nm)?
A: 544 nm

Q: What about the “Fold (fold increase, compound 1+amyloid aggregate/compound 1)” value (TDP43; excitation 488 nm) of the same compound?
A: 4.70 fold

Q: What about the λmax (TDP43; excitation 488 nm) of the same compound?
A: 529 nm

Q: What about the “Fold (fold increase, compound 1+amyloid aggregate/compound 1)” value (TTR; excitation 450 nm) of the same compound?
A: 11.5 fold

Q: And the λmax (TTR; excitation 450 nm)?
A: 543 nm

Q: And the “Fold (fold increase, compound 1+amyloid aggregate/compound 1)” value (TTR; excitation 488 nm)?
A: 5.9 fold

Q: What about the λmax (TTR; excitation 488 nm) of the same compound?
A: 549 nm

Q: And the “Fold (fold increase, compound 1+amyloid aggregate/compound 1)” value (aSyn; excitation 450 nm)?
A: 174.1 fold

Q: What about the λmax (aSyn; excitation 450 nm) of the same compound?
A: 530 nm

Q: And the “Fold (fold increase, compound 1+amyloid aggregate/compound 1)” value (aSyn; excitation 488 nm)?
A: 110.8 fold

Q: And the λmax (aSyn; excitation 488 nm)?
A: 538 nm

Q: And the “Fold (fold increase, compound 1+amyloid aggregate/compound 1)” value (Aβ; excitation 450 nm)?
A: 25.3 fold

Q: What about the λmax (Aβ; excitation 450 nm) of the same compound?
A: 550 nm

Q: What about the “Fold (fold increase, compound 1+amyloid aggregate/compound 1)” value (Aβ; excitation 488 nm) of the same compound?
A: 17.9 fold

Q: What about the λmax (Aβ; excitation 488 nm) of the same compound?
A: 555 nm

Q: And the “labeling of aggregates in ALS retina” value [4]?
A: labeled aggregates in ALS ex vivo retina cadaver tissue

Q: With `C[C@H](N)C(=O)OCCOCCOCCNC(=O)/C(C#N)=C/c1ccc2cc(N3CCCCC3)ccc2c1` [Compound 3, (E)-2-(2-(2-(2-cyano-3-(6-(piperidin-1-yl)naphthalen-2-yl)acrylamido)ethoxy)ethoxy)ethyl L-alaninate hydrochloride salt] as the compound, how does the “detection” value [2] read?
A: Hyperphosphorylated three repeat tau protein is detected in the retina, producing a detectable fluorescent signal

Q: `CC(C)(C)OC(=O)NCC(=O)OCCOCCOCCNC(=O)/C(C#N)=C/c1ccc2cc(N3CCCCC3)ccc2c1` [Compound 2, (E)-2-(2-(2-(2-cyano-3-(6-(piperidin-1-yl)naphthalen-2-yl)acrylamido)ethoxy)ethoxy)ethyl (tert-butoxycarbonyl)glycinate] was tested. Which “detection” value [2] did it give?
A: Hyperphosphorylated three repeat tau protein is detected in the retina, producing a detectable fluorescent signal
